| melting point [°C] | Structure (SMILES) |
| --- | --- |
| 85 to 86 | CCC(c1ccc(OC)cc1)N1C(=O)c2ccccc2C1=O (stereo not shown) [Example 3, 1-Phthalimido-1-(4-methoxyphenyl)propane] |
| 124 to 125 | COc1ccc(C(C)N2C(=O)c3ccccc3C2=O)cc1OC (stereo not shown) [Example 2, 1-Phthalimido-1-(3′,4′-dimethoxyphenyl) Ethane] |
| 100 to 101 | CCCC(CCC)C(c1ccc(OC)c(OC)c1)N1C(=O)c2ccccc2C1=O (stereo not shown) [Example 7, 1-Phthalimido-1 (3′,4′-dimethoxyphenyl)-2-propylpentane] |
| 160 to 161 | COc1ccc(CN2C(=O)c3ccccc3C2=O)cc1OC [Example 4, 1-Phthalimido-1-(3′,4′-dimethoxyphenyl)methane] |

Reference: patent US7329761B2, “Substituted imides” (Celgene Corporation, priority 1994, dated 2008)
